Results on 4 molecules are retold here after ChEMBL document CHEMBL1201862, “PubChem BioAssay data set” (2004).

Assay [1] can be described thus: viability of uninfected HEp-2 cells – cell-based, HTS, cytotoxicity control for RSV inhibitor project, dose response (AID 2410). The class given is functional. The following applies: human respiratory syncytial virus.
Assay [2] deals with T1, Dual specificity protein phosphatase 3 (Homo sapiens, UniProt P51452). Kind of assay: VHR1 phosphatase inhibitors, primary screen, biochemical, absorbance, uHTS (AID 1654).
For assay [3], the target named is Voltage-gated N-type calcium channel alpha-1B subunit/Amyloid beta A4 precursor protein-binding family A member 1 (Homo sapiens, UniProt Q00975+Q02410). The class given is protein assay.
Assay [4] deals with T1, Dual specificity protein phosphatase 3. Briefly: VHR1 phosphatase inhibitors, biochemical (AID 1878).
For assay [5], the target named is T2, Calpain-2 catalytic subunit (Sus scrofa, UniProt P43367).
T2 sequence (P43367 whole entry): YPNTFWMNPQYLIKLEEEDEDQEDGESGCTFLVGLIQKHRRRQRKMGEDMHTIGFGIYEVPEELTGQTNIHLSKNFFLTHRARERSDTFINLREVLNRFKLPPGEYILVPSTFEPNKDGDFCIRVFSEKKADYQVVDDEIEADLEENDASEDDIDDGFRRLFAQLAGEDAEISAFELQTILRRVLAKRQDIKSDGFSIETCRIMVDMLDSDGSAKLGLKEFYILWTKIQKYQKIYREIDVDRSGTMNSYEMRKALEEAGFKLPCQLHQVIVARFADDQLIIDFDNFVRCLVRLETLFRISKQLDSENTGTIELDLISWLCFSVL
Kind of assay: m-calpain protease blockers, concentration series – biochemical, fluorogenic peptide substrate, dose response (AID 1420). The class given is functional.

For assay [6], the target named is T3, Dual specificity protein phosphatase 6 (Rattus norvegicus, UniProt Q64346).
T3 sequence (Q64346 whole entry): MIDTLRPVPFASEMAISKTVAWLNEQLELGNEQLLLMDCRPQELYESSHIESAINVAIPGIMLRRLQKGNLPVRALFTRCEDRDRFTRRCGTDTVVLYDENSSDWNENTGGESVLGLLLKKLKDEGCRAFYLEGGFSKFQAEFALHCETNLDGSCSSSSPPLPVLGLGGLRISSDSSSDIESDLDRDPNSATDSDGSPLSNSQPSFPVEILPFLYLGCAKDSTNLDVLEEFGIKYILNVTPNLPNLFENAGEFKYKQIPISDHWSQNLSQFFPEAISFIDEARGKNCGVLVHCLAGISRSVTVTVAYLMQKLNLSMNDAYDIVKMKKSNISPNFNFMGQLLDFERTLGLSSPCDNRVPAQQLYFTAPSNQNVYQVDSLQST
Briefly: inhibition of rat DUSP6 enzyme activity – biochemical, in vitro, primary screen (AID 425).

Assay [7] concerns the target Eukaryotic translation initiation factor 4E (Mus musculus, UniProt P63073). Briefly: blockers of eIF4G binding by eIF4E – biochemical, TR-FRET, dose response (AID 855).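 Also: potency for disrupting eIF4E binding to eIF4GI seen as loss of FRET.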 The class given is functional. (TR-FRET usually uses a lanthanide donor and a delayed reading to cut background.)
The target of assay [8] is T4, Delta-type opioid receptor (Homo sapiens, UniProt P41143). Briefly: HTS Image-Based Screen for Antagonists of the DOR Receptor. [Related pubchem assays (depositor defined):AID1777, AID1785, AID1786, AID2133]. The class given is functional.
A short description of assay [9]: luciferase reporter signal suppression in cells – H4 neuroglioma cells, luminescence, dose response (AID 1990). The class given is functional, cell-based.
For assay [10], the target named is Mu-type opioid receptor (Homo sapiens, UniProt P35372). Kind of assay: HTS Image-Based Screen for Agonists of the MOR Receptor. [Related pubchem assays (depositor defined):AID1777, AID1785, AID1786, AID2133]. The class given is functional.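 Also: imaging of beta-arrestin GFP recruitment into spots after receptor activation.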
Assay [11] is described as follows: decrease of insulin promoter-GFP reporter – imaging, high-content screening, mouse beta cells (AID 1628). The class given is functional. The following applies: MIN6.
Assay [12] concerns Streptococcus sp. 'group A'. Kind of assay: Streptococcus pyogenes SK(-)GAS viability under kanamycin – luminescence, BacTiterGlo, confirmation, counter-screen for streptokinase expression inhibitor project, dose response (AID 1900). The class given is functional, organism-based.
In assay [13] the target is T4, Delta-type opioid receptor. Briefly: HTS Image-Based Screen for Agonists of the DOR Receptor. [Related pubchem assays (depositor defined):AID1777, AID1786, AID2133]. The class given is functional.
The nature of assay [14]: cells. The class given is functional, cell-based.
Assay [15] is described as follows: MIN6 cell viability loss – mouse insulinoma, cytotoxicity control, dose response (AID 2122).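 Also: confirmatory high-throughput counterscreen run to flag cytotoxic compounds.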 The class given is functional.
Assay [16] is described as follows: alpha-synuclein stem-loop luciferase translation blockers – H4 neuroglioma cells, luminescence, confirmation (AID 1988). The class given is functional, cell-based.
The target of assay [17] is T5, Streptokinase A (Streptococcus pyogenes serotype M1, UniProt P10520).
T5 sequence (P10520 whole entry): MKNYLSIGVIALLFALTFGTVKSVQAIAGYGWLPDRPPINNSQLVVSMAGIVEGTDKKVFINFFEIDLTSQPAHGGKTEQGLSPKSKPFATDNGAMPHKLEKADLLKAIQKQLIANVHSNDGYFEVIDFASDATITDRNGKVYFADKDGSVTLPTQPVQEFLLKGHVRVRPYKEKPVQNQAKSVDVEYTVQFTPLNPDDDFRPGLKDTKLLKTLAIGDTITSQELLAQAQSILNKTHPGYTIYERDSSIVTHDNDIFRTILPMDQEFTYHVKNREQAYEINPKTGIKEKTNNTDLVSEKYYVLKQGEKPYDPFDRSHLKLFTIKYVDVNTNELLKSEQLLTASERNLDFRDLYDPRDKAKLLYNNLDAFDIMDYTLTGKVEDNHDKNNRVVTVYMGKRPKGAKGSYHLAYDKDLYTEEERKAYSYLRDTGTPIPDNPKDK
Kind of assay: viability-normalized secreted streptokinase activity reduction – plasminogen activation absorbance, OD405, dose response (AID 1914).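 Also: secreted streptokinase activity via plasminogen activation per viability signal from cell pellet.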 The class given is functional, Streptococcus pyogenes M1 GAS.

Assay [18] in a line: Trypanosoma cruzi growth suppression in host cells – NIH3T3 host cells, beta-gal luminescence, confirmation (AID 2044).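 Also: intracellular parasites grown in NIH/3T3 mouse fibroblasts as host cells; luminescent beta-galactosidase reporter signal from transgenic T. cruzi replicating inside host cells; inhibitors lower the luminescence signal.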 The class given is functional, cell-based.
A short description of assay [19]: microbe, parasite or virus in culture. The conditions noted are these: Mycobacterium tuberculosis. The class given is functional.
Assay [20] can be described thus: cells. The class given is functional, cell-based. This is another data set of the same source.
A short description of assay [21]: viability of PTEN-deleted HCT116 cells – cell-based, HCT116 PTEN knockout, dose response (AID 1047).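 Also: HCT116 colon tumor cells with PTEN knocked out; cells exposed to compound for 60 hours before readout; potency for loss of cell viability measured by luminescence.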 The class given is functional.
Assay [22] has as its target T6, Kappa-type opioid receptor (Homo sapiens, UniProt P41145). The class given is functional.
Assay [23] is described as follows: NIH3T3 cell viability loss – ATP luminescence, mouse fibroblasts, counter-screen, dose response (AID 2010).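 Also: cells exposed to compound for about 90 hours before reading.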 The class given is functional, cell-based. (In general: Counterscreens check selectivity or assay interference.)
In assay [24] the target is Beta-galactosidase (Escherichia coli, UniProt Q8VNN2). The class given is functional.
Assay [25] in a line: viability of HCT116 lacking mutant beta-catenin – cell-based, human colon tumor, dose response (AID 1045).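 Also: HCT116 colon tumor cells with beta catenin knocked out; cells exposed to compound for 60 hours.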 The class given is functional.
The target of assay [26] is T6, Kappa-type opioid receptor. The class given is functional. This is another data set of the same source.
In assay [27] the test system is Streptococcus. Kind of assay: GAS UMAA2166 growth inhibition – luminescence, BacTiterGlo, counter-screen for streptokinase expression inhibitor project, dose response (AID 1915).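 Also: potency for reduction of bacterial viability or growth.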 The class given is functional, organism-based.
Assay [28] addresses T7, Short transient receptor potential channel 4 (Mus musculus, UniProt Q9QUQ5).
T7 sequence (Q9QUQ5 whole entry): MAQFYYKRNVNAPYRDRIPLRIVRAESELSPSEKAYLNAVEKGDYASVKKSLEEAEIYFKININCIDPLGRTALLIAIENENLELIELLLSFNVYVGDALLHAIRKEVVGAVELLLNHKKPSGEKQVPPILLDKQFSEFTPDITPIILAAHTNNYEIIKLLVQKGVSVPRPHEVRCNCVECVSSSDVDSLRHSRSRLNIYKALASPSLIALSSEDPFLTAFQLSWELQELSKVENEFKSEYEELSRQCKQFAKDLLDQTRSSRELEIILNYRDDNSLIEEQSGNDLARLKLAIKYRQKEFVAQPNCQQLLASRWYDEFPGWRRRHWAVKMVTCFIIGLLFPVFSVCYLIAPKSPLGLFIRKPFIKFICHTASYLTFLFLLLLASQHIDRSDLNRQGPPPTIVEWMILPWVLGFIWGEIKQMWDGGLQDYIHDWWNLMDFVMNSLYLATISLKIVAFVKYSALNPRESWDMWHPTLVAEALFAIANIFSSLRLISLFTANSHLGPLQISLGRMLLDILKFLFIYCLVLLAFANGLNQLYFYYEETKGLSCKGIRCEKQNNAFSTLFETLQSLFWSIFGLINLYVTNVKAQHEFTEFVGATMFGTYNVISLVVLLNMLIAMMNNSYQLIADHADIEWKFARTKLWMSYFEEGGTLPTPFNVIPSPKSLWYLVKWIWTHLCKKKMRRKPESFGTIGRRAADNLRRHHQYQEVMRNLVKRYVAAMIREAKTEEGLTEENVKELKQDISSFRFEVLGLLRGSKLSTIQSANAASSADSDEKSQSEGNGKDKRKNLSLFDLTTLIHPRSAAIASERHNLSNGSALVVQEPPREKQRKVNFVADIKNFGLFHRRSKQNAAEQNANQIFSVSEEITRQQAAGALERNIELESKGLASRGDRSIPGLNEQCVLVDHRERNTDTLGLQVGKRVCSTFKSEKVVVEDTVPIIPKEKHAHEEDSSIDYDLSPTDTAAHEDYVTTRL
Briefly: block of DAMGO-driven TRPC4 calcium entry – cell-based, HEK293 TRPC4/mu-opioid, Fluo-4 calcium, dose response (AID 434942).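 Also: potency of inhibitors blocking the TRPC4 calcium response.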 The class given is functional.

The target of assay [29] is Nonstructural protein 1 (Influenza A virus, UniProt Q194T2). The class given is functional, Influenza A virus (A/California/07/2009(H1N1)).
In assay [30] the test system is INS1. Briefly: INS-1E survival protection against cytokine death – cell-based, luminescence, retest, dose response (AID 449756).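 Also: cell death triggered by IL-1 beta plus TNF-alpha plus IFN-gamma mixture; protective hits raise ATP signal compared with cytokine alone wells.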 The class given is functional. The following applies: Rattus norvegicus.
A short description of assay [31]: reduction of Shn3 3'UTR-driven luciferase in osteoblasts – cell-based, Clone20 osteoblasts, firefly luciferase, cherry-picked, dose response (AID 624132).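 Also: firefly luciferase luminescence from reporter carrying the Shn3 3'UTR in osteoblasts.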 The class given is functional.
The nature of assay [32]: loss of viability in HepG2 cells – cell-based, CellTiter-Glo, cherry-picked, cytotoxicity control for Shn3 inhibitor project, dose response (AID 624134). The class given is functional.
The nature of assay [33]: non-specific 3'UTR reporter inhibition in Clone20-Shn3RL – cell-based, Renilla luciferase, cherry-picked, counter-screen for Shn3 inhibitor project, dose response (AID 624133). The class given is functional.
Assay [34] addresses T6, Kappa-type opioid receptor. Briefly: SAR analysis of small molecule agonists of the kappa opioid receptor via a luminescent beta-arrestin assay - Set 3. [Related pubchem assays (depositor defined):AID1777, AID1785, AID1786, AID1966, AID2133, AID2136, AID2284, AID2500]. The class given is functional.
The target of assay [35] is Sphingosine 1-phosphate receptor 1 (Homo sapiens, UniProt P21453). Briefly: Fluorescence-based counterscreen assay for S1P4 agonists: Cell-based dose response high throughput screening assay to identify agonists of the Sphingosine 1-Phosphate Receptor 1 (S1P1). [Related pubchem assays (depositor defined):AID1509, AID1523, AID1801, AID463107, AID463118, AID463119, AID463122, AID463123, AID463129, AID463225, AID504400, AID504460]. The class given is functional.

Assay [36] deals with Sphingosine 1-phosphate receptor 4 (Homo sapiens, UniProt O95977). Briefly: Fluorescence dose response cell-based high throughput screening assay for agonists of the Sphingosine 1-Phosphate Receptor 4 (S1P4). [Related pubchem assays: 1509 (Primary screen.), 1523 (Confirmation screen in triplicates.)]. The class given is functional.

Active and inactive are the calls of the source. Where only a bound is given, the exact number is not on record here.

T6 sequence (P41145 whole entry): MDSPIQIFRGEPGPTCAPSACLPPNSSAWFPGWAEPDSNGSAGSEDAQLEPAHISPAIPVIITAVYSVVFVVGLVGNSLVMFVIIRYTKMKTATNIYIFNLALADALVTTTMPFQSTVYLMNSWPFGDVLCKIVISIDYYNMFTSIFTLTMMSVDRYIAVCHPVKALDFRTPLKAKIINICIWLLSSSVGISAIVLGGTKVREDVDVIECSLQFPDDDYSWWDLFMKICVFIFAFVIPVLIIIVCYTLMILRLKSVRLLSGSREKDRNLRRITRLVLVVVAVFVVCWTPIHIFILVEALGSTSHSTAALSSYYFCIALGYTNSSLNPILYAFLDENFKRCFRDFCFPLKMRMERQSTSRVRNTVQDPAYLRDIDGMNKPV
T4 sequence (P41143 whole entry): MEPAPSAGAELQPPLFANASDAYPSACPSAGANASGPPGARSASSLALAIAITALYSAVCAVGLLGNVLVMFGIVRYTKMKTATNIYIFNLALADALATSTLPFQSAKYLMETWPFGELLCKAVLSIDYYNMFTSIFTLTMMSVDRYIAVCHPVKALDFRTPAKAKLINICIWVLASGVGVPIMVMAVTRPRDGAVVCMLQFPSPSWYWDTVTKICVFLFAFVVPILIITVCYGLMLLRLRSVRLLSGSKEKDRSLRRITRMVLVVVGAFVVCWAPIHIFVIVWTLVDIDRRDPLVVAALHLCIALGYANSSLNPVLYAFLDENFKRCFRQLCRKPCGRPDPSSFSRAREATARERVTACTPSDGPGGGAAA
T1 sequence (P51452 whole entry): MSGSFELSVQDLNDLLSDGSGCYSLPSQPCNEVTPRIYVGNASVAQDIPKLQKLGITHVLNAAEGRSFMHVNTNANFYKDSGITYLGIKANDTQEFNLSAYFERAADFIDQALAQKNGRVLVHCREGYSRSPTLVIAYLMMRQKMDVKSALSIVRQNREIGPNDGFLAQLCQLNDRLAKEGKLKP
Sequence of Mu-type opioid receptor (P35372 whole entry): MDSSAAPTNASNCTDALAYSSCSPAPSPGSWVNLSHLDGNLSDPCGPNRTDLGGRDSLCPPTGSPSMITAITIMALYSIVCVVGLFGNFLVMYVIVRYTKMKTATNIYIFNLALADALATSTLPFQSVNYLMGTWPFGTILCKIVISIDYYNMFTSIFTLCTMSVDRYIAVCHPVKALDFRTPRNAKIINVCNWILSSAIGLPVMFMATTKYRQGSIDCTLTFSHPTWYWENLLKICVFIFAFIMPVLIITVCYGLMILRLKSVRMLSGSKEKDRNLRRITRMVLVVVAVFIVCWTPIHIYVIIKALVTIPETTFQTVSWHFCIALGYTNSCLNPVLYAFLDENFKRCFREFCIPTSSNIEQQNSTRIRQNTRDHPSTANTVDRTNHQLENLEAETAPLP
Sequence of Beta-galactosidase (Q8VNN2 whole entry): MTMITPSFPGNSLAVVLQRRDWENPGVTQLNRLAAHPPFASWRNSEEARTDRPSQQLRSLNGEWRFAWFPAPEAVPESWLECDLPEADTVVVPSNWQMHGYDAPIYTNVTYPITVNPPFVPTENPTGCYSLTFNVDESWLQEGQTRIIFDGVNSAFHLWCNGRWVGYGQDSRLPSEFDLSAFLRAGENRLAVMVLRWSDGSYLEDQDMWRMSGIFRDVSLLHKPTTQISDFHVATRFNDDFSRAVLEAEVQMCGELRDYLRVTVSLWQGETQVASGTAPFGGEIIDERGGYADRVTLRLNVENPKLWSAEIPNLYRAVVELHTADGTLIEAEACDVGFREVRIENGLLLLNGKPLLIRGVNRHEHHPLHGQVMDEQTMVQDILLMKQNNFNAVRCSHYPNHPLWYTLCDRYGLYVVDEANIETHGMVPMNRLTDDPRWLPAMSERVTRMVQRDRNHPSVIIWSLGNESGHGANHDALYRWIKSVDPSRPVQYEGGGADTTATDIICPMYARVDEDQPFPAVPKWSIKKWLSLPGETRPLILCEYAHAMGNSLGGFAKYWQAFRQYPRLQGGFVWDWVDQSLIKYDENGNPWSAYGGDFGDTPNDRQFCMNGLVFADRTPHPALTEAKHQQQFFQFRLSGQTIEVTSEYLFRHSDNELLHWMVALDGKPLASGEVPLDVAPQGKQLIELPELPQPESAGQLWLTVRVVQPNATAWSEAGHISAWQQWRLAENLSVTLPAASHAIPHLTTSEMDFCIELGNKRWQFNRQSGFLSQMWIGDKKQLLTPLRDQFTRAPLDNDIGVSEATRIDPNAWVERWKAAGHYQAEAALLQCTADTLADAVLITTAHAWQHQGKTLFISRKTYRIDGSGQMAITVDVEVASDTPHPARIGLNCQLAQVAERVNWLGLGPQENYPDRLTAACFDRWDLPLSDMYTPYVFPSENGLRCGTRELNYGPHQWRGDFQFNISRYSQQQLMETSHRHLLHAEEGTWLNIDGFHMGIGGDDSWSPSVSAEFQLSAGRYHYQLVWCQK
Sequence of Eukaryotic translation initiation factor 4E (P63073 whole entry): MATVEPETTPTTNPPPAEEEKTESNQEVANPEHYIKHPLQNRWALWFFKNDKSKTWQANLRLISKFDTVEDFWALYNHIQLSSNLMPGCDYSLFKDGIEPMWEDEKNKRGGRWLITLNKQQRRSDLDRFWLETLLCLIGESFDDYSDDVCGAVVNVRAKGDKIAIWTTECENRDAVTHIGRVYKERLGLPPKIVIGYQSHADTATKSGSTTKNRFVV
Sequence of Nonstructural protein 1 (Q194T2 whole entry): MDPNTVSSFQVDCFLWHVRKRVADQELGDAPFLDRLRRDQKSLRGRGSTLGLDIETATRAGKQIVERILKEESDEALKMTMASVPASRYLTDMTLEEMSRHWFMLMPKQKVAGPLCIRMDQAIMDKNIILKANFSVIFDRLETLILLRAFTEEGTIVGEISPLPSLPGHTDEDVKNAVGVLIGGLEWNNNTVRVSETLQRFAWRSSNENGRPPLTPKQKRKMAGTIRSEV
Sequence of Sphingosine 1-phosphate receptor 4 (O95977 whole entry): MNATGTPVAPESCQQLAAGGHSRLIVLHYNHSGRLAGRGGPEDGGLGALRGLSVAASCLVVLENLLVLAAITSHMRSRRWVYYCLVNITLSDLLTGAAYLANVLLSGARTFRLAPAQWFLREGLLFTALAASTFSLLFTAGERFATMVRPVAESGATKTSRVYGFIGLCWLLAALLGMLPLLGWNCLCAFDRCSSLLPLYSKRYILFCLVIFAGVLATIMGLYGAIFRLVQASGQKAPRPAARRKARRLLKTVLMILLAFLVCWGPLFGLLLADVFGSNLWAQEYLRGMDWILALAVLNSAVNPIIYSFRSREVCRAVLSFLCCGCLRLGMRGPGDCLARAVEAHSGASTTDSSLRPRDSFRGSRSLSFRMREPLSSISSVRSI
Sequence of Sphingosine 1-phosphate receptor 1 (P21453 whole entry): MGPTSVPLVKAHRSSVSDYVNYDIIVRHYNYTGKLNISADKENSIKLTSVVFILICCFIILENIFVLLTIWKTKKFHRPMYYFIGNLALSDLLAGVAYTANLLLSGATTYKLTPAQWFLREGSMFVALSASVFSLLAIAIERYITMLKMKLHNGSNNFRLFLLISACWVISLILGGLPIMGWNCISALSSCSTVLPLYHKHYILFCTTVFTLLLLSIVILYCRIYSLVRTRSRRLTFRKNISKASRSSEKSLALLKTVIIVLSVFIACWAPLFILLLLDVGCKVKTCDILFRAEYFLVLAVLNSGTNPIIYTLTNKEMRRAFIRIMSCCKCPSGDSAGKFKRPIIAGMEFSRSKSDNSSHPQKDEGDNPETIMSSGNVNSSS

`O=C(Nc1ccc(Cl)c(Cl)c1)Nc1nnc(-c2ccncc2)s1`: the CC50 in [1] is 5.14 µM (active). For the same molecule, the IC50 in [2] is 5.3 µM (active); in [3] it was 21.1 µM (active); in [4], 1.56 µM (active); in [5], 3.64 µM (active); in [6], 16.2 µM (active); in assay [7] it was > 64 µM (inactive).

With `Oc1ccc(CN2CCc3ccccc3C2)c2cccnc12`, the IC50 is > 32 µM (inactive) in assay [8]; 1.96 µM (active) in [11]; 1.69 µM (active) in [15]; 14 µM (active) in [22]; above 32 µM in assay [26]; 5.76 µM (active) in [29]. The EC50 in [9] was < 0.1 µM (active); in assay [10], > 32 µM (inactive); in assay [12], 6.14 µM (active); in assay [13], > 32 µM (inactive); in assay [14], 4.63 µM (active); in [16], 0.528 µM (active). The EC50 in assay [17] is > 150 µM (not active); in assay [18], 0.529 µM (active); in assay [20], > 350 µM (not active); in assay [21], 1.82 µM (active); in assay [23], 5.88 µM (active); in assay [24] it was > 31.5 µM (inactive). The concentration giving a half-maximal response (EC50) in assay [25] was 1.52 µM (active); in [27] it was 13.8 µM (active); in [28], 7.5 µM (active). In assay [19], the CC50 was 1.62 µM (active). Also, the AC50 in assay [30] was 1.83 µM (active); in assay [31], 0.673 µM (active); in assay [32], 1.69 µM (active); in [33], 0.971 µM (active).

Regarding `FC(F)(F)c1cc(CSc2nnc(-c3ccc(Br)cc3)n2Cc2ccco2)ccc1Cl`, in [34], the EC50 was 11 µM (inactive).

For `Cn1c(-c2cc3ccc(OC(=O)C(C)(C)C)cc3oc2=O)nc2ccccc21`, the EC50 in assay [35] was 33.5 µM (inactive); in [36], 37 µM (not active).

As usually defined, the IC50 is the concentration needed to halve the response being measured. A word on the EC50: it is the concentration giving half of the maximal effect. As usually defined, the AC50 is the midpoint of the concentration-response curve, whichever way the signal moves.
